Source: publication PMC3003779 (Chemistry & biology, 2010)
Like-named read-outs stand apart in the source and are kept apart here.

What was measured:
[1] = target: T1, FAAH (Mus musculus, UniProt O08914); assay: in vivo; type: in vivo
T1 sequence (O08914 1-579): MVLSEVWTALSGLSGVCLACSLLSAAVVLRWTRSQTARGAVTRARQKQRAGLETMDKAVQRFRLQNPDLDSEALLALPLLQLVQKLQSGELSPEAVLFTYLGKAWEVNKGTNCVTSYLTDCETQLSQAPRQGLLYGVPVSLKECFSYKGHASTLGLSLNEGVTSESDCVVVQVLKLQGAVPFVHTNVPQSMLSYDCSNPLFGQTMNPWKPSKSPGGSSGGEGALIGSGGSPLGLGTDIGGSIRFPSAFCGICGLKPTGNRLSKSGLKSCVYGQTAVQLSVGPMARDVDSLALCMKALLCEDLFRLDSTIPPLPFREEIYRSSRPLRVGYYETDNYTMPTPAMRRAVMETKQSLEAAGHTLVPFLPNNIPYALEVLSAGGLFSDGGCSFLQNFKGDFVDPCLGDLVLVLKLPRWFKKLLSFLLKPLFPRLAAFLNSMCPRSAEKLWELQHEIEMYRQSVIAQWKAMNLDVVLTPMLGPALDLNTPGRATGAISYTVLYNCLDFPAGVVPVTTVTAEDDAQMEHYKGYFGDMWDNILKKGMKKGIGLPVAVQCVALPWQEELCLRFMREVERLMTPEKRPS

[2] = target: CB1 receptor (Rattus norvegicus, UniProt P20272); assay: radioligand displacement, [3H]CP,55940, rat forebrain membranes
Sequence of CB1 receptor (P20272 whole entry): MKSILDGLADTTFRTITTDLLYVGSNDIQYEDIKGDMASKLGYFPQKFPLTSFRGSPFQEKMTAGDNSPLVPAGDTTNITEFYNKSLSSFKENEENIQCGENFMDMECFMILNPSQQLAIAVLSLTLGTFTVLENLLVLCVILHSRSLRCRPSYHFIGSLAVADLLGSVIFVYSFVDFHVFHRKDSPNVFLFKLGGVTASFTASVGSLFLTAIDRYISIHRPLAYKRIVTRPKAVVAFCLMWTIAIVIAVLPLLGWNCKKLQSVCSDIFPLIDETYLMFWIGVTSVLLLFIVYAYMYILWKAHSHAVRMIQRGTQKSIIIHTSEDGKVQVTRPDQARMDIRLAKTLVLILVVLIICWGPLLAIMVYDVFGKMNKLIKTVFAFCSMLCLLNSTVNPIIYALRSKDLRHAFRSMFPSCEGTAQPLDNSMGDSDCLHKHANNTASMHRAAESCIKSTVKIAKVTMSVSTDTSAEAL

[3] = tested on: Mouse hepatocytes; assay: drug levels in hepatocyte suspensions by LC/MS/MS
[4] = tested on: SHR; assay: cardiovascular effects under ganglionic blockade; conditions: 1 mg/kg, hexamethonium + vasopressin + isoproterenol
[5] = tested on: SHR and WKY rats; assay: hemodynamic analysis with pressure-volume microcatheter; type: in vivo, rat; conditions: 1 mg/kg i.v., 20 min
[6] = target: T1, FAAH; type: cell-based; conditions: 100 nM
[7] = target: T2, FAAH (Rattus norvegicus, UniProt P97612); type: in vivo; conditions: for ID50, inhibition of brain FAAH activity: i.p., 1 h; for reduction of hepatic FAAH activity: 1 mg/kg i.p.
T2 sequence (P97612 1-579): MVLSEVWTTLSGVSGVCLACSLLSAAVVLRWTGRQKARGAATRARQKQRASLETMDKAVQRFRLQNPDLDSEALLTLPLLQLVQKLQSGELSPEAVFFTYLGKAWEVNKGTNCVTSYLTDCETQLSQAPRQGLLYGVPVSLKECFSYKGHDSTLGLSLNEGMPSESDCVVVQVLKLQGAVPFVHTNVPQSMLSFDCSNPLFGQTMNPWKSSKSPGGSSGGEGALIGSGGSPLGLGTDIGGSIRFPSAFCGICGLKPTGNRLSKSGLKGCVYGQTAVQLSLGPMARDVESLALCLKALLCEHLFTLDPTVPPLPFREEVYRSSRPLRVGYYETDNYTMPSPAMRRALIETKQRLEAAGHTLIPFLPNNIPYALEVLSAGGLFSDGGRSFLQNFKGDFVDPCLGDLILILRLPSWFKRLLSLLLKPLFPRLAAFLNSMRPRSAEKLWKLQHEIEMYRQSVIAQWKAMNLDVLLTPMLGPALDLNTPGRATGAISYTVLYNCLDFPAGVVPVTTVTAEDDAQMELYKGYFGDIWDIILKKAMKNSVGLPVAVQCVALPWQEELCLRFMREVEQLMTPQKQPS

[8] = tested on: SHR and WKY rats; assay: plasma norepinephrine; type: in vivo, rat; conditions: 1 mg/kg i.v.
[9] = tested on: anandamide levels in hepatocytes; assay: anandamide levels in hepatocytes; type: cell-based, mouse; conditions: 100 nM, dense suspension 40 mg/mL
[10] = tested on: mice with diet-induced obesity; assay: intraperitoneal glucose tolerance test in mice on high-fat diet; type: in vivo, mouse; conditions: male DIO mice
[11] = tested on: SHR; assay: mean arterial pressure and heart rate in chronically cannulated conscious SHR; type: in vivo, rat; conditions: 0.5 mg/kg i.v.
[12] = target: T1, FAAH; assay: FAAH activity in brain and liver homogenates, drug added in vitro; type: biochemical; conditions: 100 nM added in vitro, brain and liver homogenates
[13] = tested on: brain anandamide and 2-AG levels; assay: brain endocannabinoid levels by LC/MS; conditions: SHR and WKY, bolus i.p. doses, 1 h
[14] = tested on: SHR and WKY rats; assay: mean arterial pressure and heart rate in anesthetized rats; type: in vivo, rat; conditions: 1 mg/kg i.v.
[15] = tested on: other serine hydrolases; assay: competitive activity-based protein profiling, ex vivo after i.p. dosing; type: in vivo, mouse; conditions: 1 h
[16] = tested on: SHR and WKY rats; assay: non-fasting blood glucose in rats; conditions: 1 mg/kg i.p.

## O=S(=O)(F)CCCCCc1ccc(O)cc1 [AM3506, 5-(4-hydroxyphenyl)pentanesulfonyl fluoride]
[1]; mouse brain, ex vivo
  ID50, inhibition of brain FAAH activity: 0.10 mg/kg
[1]; mouse liver, doses up to 1 mg/kg
  FAAH inhibitory activity in liver: devoid of substantial FAAH inhibitory activity
[1]; oral, 1 mg/kg, brain
  suppression of FAAH activity in brain: 90±0.4%
[1]; oral, 1 mg/kg, liver
  suppression of hepatic FAAH activity: 13±2.6%
[2]
  Ki: 5.77 µM
[3]; 0 to 30 min, no hepatocytes
  recovery of drug from cell-free medium: remained constant
[3]; 100 nM, 40 mg/mL
  drug level in cell pellets, dense hepatocyte suspension: below threshold
  drug level in medium, dense hepatocyte suspension: rapidly depleted from the medium
[3]; dilute hepatocyte suspension 1 mg/mL, 100 nM, 10 min, % of drug added at 0 min
  free drug (parent ion) still present in cell-free supernatant: 50–55%
[4]
  reduction of the bradycardia elicited by AM3506 under ganglionic blockade: 74.0±7.7%
  reduction of the hypotension elicited by AM3506 under ganglionic blockade: 89.6±3.6%
[5]; SHR
  cardiac contractility (ESPVR): marked decrease
  cardiac output (CO): decreases
  dP/dtmax: decreases
  left ventricular end-systolic pressure (LVESP): decreases
[5]; normotensive WKY
  LVESP, dP/dtmax, TPR and CO: No changes
[6]; 40 mg/mL
  FAAH activity in cells, dense hepatocyte suspension: no measurable change
[6]; 30 min, 1 mg wet cell weight/mL
  FAAH activity in cell pellet, dilute hepatocyte suspension: nearly completely blocked
[7]; SHR brain
  ID50, inhibition of brain FAAH activity: ~0.1 mg/kg
[7]; SHR liver
  reduction of hepatic FAAH activity: 11.1±0.4%
[7]; WKY brain
  ID50, inhibition of brain FAAH activity: ~0.1 mg/kg
[7]; WKY liver
  reduction of hepatic FAAH activity: 6.7±0.2%
[8]; WKY, baseline 198±11, remained unaffected
  plasma norepinephrine after treatment: 167 ± 35 pg/mL
[8]; anesthetized SHR, 30 min
  reduction of plasma norepinephrine: 82±5%
[8]; anesthetized SHR, 30 min, […]
  plasma norepinephrine after treatment: 53 ± 12 pg/mL
[9]
  anandamide levels in hepatocytes: remained unchanged
[10]; 1 mg/kg
  effect on glucose tolerance: did not affect glucose tolerance
[10]; 1 mg/kg i.p. 60 min before glucose, vehicle 352±28
  ipGTT area under the curve (AUC): 411 ± 35 mg·h/dL
[11]; awake SHR, n = 5
  duration of MAP and HR effects: up to 60 minutes
[11]; conscious SHR, from 176 ±4, n=4
  MAP after treatment: 127±5 mmHg
[11]; conscious SHR, from 355±6, n=4
  HR after treatment: 286±22 bpm
[11]; conscious SHR, n=4
  duration of MAP and HR effects: up to an hour
[12]
  FAAH activity in tissue homogenates: equally effective in blocking FAAH activity in brain and liver
[13]
  brain 2-AG levels: remained unaffected
  brain anandamide levels: parallel increases
[14]; SHR
  effect on HR: marked bradycardia
  effect on MAP: profound and sustained decrease
[14]; WKY
  effect on MAP and HR: only slight changes
[15]; mouse brain, 0.1 mg/kg i.p.
  activity of other serine hydrolases in brain (ABPP): no change
[15]; mouse liver, 1 mg/kg i.p.
  liver unidentified ~58kD protein activity (ABPP): partial inhibition
[16]; SHR, from 97.8±5.6
  non-fasting blood glucose after treatment: 96.8 ± 2.9 mg/dL
[16]; WKY, from 114.5±5.3
  non-fasting blood glucose after treatment: 108.2 ± 4.5 mg/dL
